From paper PMC9320886, “Daily Intraperitoneal Administration of Rosiglitazone Does Not Improve Lung Function or Alveolarization in Preterm Rabbits Exposed to Hyperoxia” (Pharmaceutics, 2022)
pEC50: −log10 of the molar value. Read-outs that look alike come from different tables or passages of the source.

Columns and labels:
[1] = lung tissue binding by equilibrium dialysis; type: in vitro ADME; settings: preterm rabbit lung homogenate, 4 h, 37 °C
Method: In vitro lung tissue binding was also determined by equilibrium dialysis as described above. Preterm rabbit lungs (New Zealand White, BIOIVT) were homogenized using a Precellys tissue homogenizer (Bertin instruments, Montigny-le-Bretonneux, France). Precellys lysing vials (CK28-R, Bertin instruments) were filled with lung and buffer according to the following proportion: 1 g of tissue and 5 mL of ice-cold PBS (dilution 1:6). At the end of the homogenization process, a pool of lung homogenate was prepared mixing equal amount of homogenate from three different donors. Test compounds and the positive control were diluted in the pooled lung homogenate to a final concentration of […] and then dispensed into the red chamber of the RED device inserts. PBS was dispensed into the other side. Upon completion of 4 h of incubation (37 °C under shaking), equal aliquots were removed from each chamber and matrix matched with even volumes of lung homogenate or buffer for LC-MS/MS analyses.
Free and Bound percentages of the compounds were calculated as follows:(3) %Free=Area buffer sample/Area lung homogenate sample×100 (4) % Bound=100−%Free

[2] = Caco-2 permeability assay; type: in vitro ADME; settings: human, apical to basolateral
Method: (§1) Caco-2 cells were purchased from ReadyCell (Barcelona, Spain). The cells arrived already seeded and differentiated (21-days) in 96-well plates (CacoReady 96-well kits, ReadyCell). Cells were maintained in a cell culture medium: Dulbecco’s modified Eagle’s medium (DMEM) 1 g/L glucose containing 10% fetal bovine serum, 1% L-glutamine 200 mM, and 1% penicillin (10,000 U/mL)–streptomycin (10 mg/mL), all from Merck KGaA. The buffer used in the assay was Hanks Balanced Salt Solution (HBSS, Merck). Control compounds were: sulpiride (low permeability control), metoprolol (high permeability control), talinolol (P-glycoprotein transport (Pgp) substrate control), and GF120918 (Elacridar, Pgp inhibitor), all purchased from Merck KGaA.
(§2) The day of the experiment, the integrity of the cell monolayers was assessed before and after the assay by measuring the transepithelial electrical resistance (TEER). The permeability of the compounds across the cell monolayer was determined by measuring their transport in both directions: apical to basolateral (A → B) and basolateral to apical (B → A) in the absence and presence of Elacridar (a known P-gp inhibitor). The donor working solution was prepared by dilution of the DMSO stock of the test compound or positive control with HBSS (pH 7.4) to 10 µM. For A → B directional transport, the donor working solution (with test compound or positive control, with or without P-gp inhibitor) was added to the apical (A) and HBSS was added to the basolateral (B) compartment. For B → A directional transport, the donor working solution (with positive control or test compound […], with or without P-gp inhibitor) was added to the basolateral (B) and HBSS was added to the apical (A) compartment. The assay was performed with a Hamilton Star Lab robotic system. Samples were collected at t0 and 2 h after incubation (5% CO2, 95% relative humidity, 37 °C) for LC-MS/MS analyses.
(§3) Apparent permeability (Papp) was calculated with the following equation: (5) Papp(cm/sec)=(Vr/C0)×(1/A)×(Cr(t)/t) where Vr is the volume of the solution in the receiving compartment (mL); C0 is the initial test compound concentration in the donor compartment (expressed as area ratio); A is the membrane surface area (0.14 cm^2); Cr (t) is the measured concentration of the receiver well at time t120 (expressed as area ratio); and t is time of incubation (sec).

[3] = Caco-2 permeability assay; type: in vitro ADME; settings: human, basolateral to apical
[4] = plasma protein binding by equilibrium dialysis; type: in vitro ADME; set-up: fraction unbound at 4 h: dose or concentration left out as unconfirmed; settings: 37 °C
Method: In vitro plasma protein binding was determined in preterm rabbit plasma (New Zealand White Pooled Gender, BIOIVT, Hicksville, NY, USA) by equilibrium dialysis using Thermo Fisher Scientific Pierce RED rapid equilibrium dialysis devices (Device Inserts 8K MWCO, Thermo Fisher Scientific, Waltham, MA, USA). The assay was performed using a Tecan Evoware robotic system (Männedorf, Switzerland). Test compounds and the positive control were diluted in the pooled plasma (three donors) to a final concentration of […] and then dispensed into the red chamber of the RED device inserts. Phosphate-Buffered Saline (PBS, from Merck KGaA, Darmstadt, Germany) was dispensed into the other side. Upon completion of 4 h of incubation (37 °C under shaking), equal aliquots were removed from each chamber and matrix matched with even volumes of plasma or buffer for LC-MS/MS analyses.
Free and Bound percentages of the compounds were calculated as follows:(1) %Free=Area buffer sample/Area plasma sample×100 (2) % Bound=100−%Free

[5] = tested on: patients with type 2 diabetes; settings: type II diabetes patients, compared with RZG; cited from earlier work
db/db diabetic mice = tested on: db/db diabetic mice; set-up: method as in PMID 11600232, PMID 28656106; settings: compared with RGZ and PGZ; cited from earlier work
Caco-2 cell monolayers = experiment: Caco-2 permeability assay; type: in vitro ADME
Method: as §1, §2, §3

human PPARγ = target: T1, human PPARγ (Homo sapiens, UniProt P37231); experiment: human PPARγ nuclear reporter assay (luciferase); settings: reporter cells incubated 24 h, luminescence
T1 sequence (P37231 1-505): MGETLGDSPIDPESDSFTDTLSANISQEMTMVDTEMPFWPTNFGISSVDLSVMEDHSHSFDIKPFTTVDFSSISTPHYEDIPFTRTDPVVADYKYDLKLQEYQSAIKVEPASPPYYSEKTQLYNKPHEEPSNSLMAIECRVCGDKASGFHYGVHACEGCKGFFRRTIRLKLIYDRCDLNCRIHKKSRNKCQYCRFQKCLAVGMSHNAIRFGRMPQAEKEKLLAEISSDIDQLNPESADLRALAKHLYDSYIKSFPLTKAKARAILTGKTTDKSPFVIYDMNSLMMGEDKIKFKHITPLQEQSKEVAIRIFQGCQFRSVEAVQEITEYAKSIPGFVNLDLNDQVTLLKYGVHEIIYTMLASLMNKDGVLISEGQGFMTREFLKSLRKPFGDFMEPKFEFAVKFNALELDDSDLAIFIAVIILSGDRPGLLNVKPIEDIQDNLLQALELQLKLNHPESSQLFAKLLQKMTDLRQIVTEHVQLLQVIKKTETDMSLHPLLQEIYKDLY
Method: A human PPARγ nuclear reporter assay was purchased from Indigo Biosciences Inc. (Cat. #IB00101, State College, PA, USA) and was performed according to the manufacturer’s instructions. Briefly, the reporter cells of the assays include a luciferase reporter gene functionally linked to a PPARγ-responsive promoter. Thus, quantifying changes in luciferase expression in the treated reporter cells provides a sensitive surrogate measure of the changes in PPARγ activity. […] A sigmoidal dose–response analysis was performed to determine the half-maximal effective concentration (EC50) values for each TZD (GraphPad Prism 8.4.3, San Diego, CA, USA).

Row | Compound | Lung Tissue Binding (%) [1] [%] | Papp A→B at 2 h, 10 µM ([2]; Caco-2, pH 7.4, with Elacridar (GF120918), concentration not given, with Elacridar, read-out: Papp with Pgp Inhibitor (A–B)) [×10⁻⁶ cm/s] | Papp A→B at 2 h, 10 µM ([2]; Caco-2, pH 7.4, 10 µM, 2 h, without Pgp inhibitor, read-out: Papp (A–B)) [×10⁻⁶ cm/s] | Papp B→A at 2 h, 10 µM ([3]; Caco-2, pH 7.4, with Elacridar (GF120918), concentration not given, with Elacridar, read-out: Papp with Pgp Inhibitor (B–A) (converted)) [×10⁻⁶ cm/s] | Papp B→A at 2 h, 10 µM ([3]; Caco-2, pH 7.4, 2 h, without Pgp inhibitor, read-out: Papp (B–A) (converted)) [×10⁻⁶ cm/s] | fraction unbound at 4 h ([4]; both sexes, New Zealand White, preterm rabbit plasma (pooled)) | plasma triglycerides [5] | plasma glucose and TG reductions (db/db diabetic mice) | Papp (A–B) (Caco-2 cell monolayers; apical to basolateral, 10 µM, 2 h, without Pgp inhibitor) [×10⁻⁶ cm/s] | Papp with Pgp Inhibitor (A–B) (Caco-2 cell monolayers; apical to basolateral, with Elacridar) [×10⁻⁶ cm/s] | Papp (B–A) (Caco-2 cell monolayers; basolateral to apical, 2 h, without Pgp inhibitor) [×10⁻⁶ cm/s] | Papp with Pgp Inhibitor (B–A) (Caco-2 cell monolayers; basolateral to apical, with Elacridar) [×10⁻⁶ cm/s] | pEC50 (human PPARγ) | Plasma Protein Binding (%) ([4]; preterm rabbit plasma, 4 h)
1 | CCc1ccc(CCOc2ccc(CC3SC(=O)NC3=O)cc2)nc1 (stereo not drawn) [PGZ, pioglitazone] | 95.6 ± 2.1 | 12.3 | 11.8 | 25.4 | 15.3 | 0.033 | significant reduction |  |  |  |  |  |  | 
2 | Cc1nn(CCOc2ccc(CC3SC(=O)NC3=O)cc2)c(=O)c2ccccc12 (stereo not drawn) [DRF-2546] | 91.8 ± 1.8 |  |  |  |  |  |  | superior | 22.9 ± 0.3 | 28.6 ± 1.5 | 18.7 ± 8 | 15.8 ± 3.4 | 6.22 | 98.4 ± 0.3
